{
  "source": "patent US12357582B2",
  "about": "“Hydrophobic ion pairing and flash nanoprecipitation for formation of controlled-release nanocarrier formulations” (The Trustees of Princeton University, priority 2017, dated 2025)",
  "molecules": {"B1": {"name": "Ovalbumin (protein, UniProt P01012 2-386, looked up)", "Ovalbumin": "GSIGAASMEFCFDVFKELKVHHANENIFYCPIAIMSALAMVYLGAKDSTRTQINKVVRFDKLPGFGDSIEAQCGTSVNVHSSLRDILNQITKPNDVYSFSLASRLYAEERYPILPEYLQCVKELYRGGLEPINFQTAADQARELINSWVESQTNGIIRNVLQPSSVDSQTAMVLVNAIVFKGLWEKAFKDEDTQAMPFRVTEQESKPVQMMYQIGLFRVASMASEKMKILELPFASGTMSMLVLLPDEVSGLEQLESIINFEKLTEWTSSNVMEERKIKVYLPRMKMEEKYNLTSVLMAMGITDVFSSSANLSGISSAESLKISQAVHAAHAEINEAGREVVGSAEAGVDAASVSEEFRADHPFLFCIKHIATNAVLFFGRCVSP", "notes": "anionic protein, 385 amino acid residues, 43,000 Da"}},
  "key": {"[1]": {"conditions": "ambient temperature; cited from earlier work"}, "[2]": {"assay": "Ion-pairing screening using gentamicin API", "type": "physicochemical", "parameters": "key to Precipitation: +++: + details qualitative observations of the amount of solid formed; ++: + details qualitative observations of the amount of solid formed; + details qualitative observations of the amount of solid formed; − details no solids formed", "conditions": "gentamicin API mixed with IP in water", "description": "(§1) The fifteen ion pairing (IP) reagents listed above were screened to assess if hydrophobic API salt forms would be formed and would precipitate from solution. Ion pair and API drug properties were calculated with Molinspiration software (Molinspiration Cheminformatics, Slovakia). APIs were dissolved in water at 5 mg mL^−1 concentration and mixed with IPs dissolved in water at varying concentrations to yield different API to IP ratios. The screening process determines whether a particular IP may be used with a given API for NC formation.\n(§2) In the case of pre-ion pairing, API and IP are mixed in water to form a water-insoluble precipitate (referred to as an API:IP complex). The water is then removed, and the API:IP complex is dissolved into an organic solvent (along with a block copolymer) for use in the organic stream in FNP. In this case, the API:IP complex is treated as a component in the organic stream of normal FNP. The screening process for the pre-ion paired method FNP involves four sequential tests. • 1. The first test examines the solubility of the IP agent. IP is added to DI water at a concentration that would be required for a 1:1 API:IP charge ratio if the API were dissolved at 5 mg mL^−1. (In this text the ratios are presented as charge ratios of API:IP.) Substantial […] in water is required for successful ion pairing. • 2. The second test examines whether an in situ API:IP complex can be formed in a single step. For example, The second test examines whether solids precipitate upon mixing of the aqueous IP solution with an aqueous API solution. Alternatively, IP in an organic, but water miscible, solution is mixed against the aqueous API solution. The final solution is checked visually to see if precipitation has occurred. In this test, the IP solution is at a concentration such that mixing equal volumes of IP solution and API solution will form a 1:1 API to IP charge ratio. Four API:IP ratios are investigated: 200 μL API solution is mixed with 100 μL IP solution for a 1:0.5 charge ratio; 200 μL API solution is mixed with 200 μL IP solution for a 1:1 charge ratio; 200 μL API solution is mixed with 400 μL IP solution for a 1:2 charge ratio; and 200 μL API solution is mixed with 800 μL IP solution for a 1:4 charge ratio. • 3. The third test examines whether the API:IP complex can be solubilized in the organic phase for subsequent FNP NC formation. Pellets of the precipitate formed in the second test are tested to see if they are soluble in a water-miscible organic solvent such as tetrahydrofuran (THF) or more polar solvents such as dimethyl sulfoxide (DMSO) or methanol (MeOH). For example, if precipitates were formed in the second test, the mixture can be centrifuged at 20800 rcf for 20 minutes, and the aqueous supernatant can be removed in order to recover pelleted precipitate. 200 μL of organic solvent can be added to the pellet; the solution can then be mixed to determine whether the pellet dissolves. • 4. The final (fourth) test assesses if the hydrophobic API:IP complex will re-precipitates when mixed with water, e.g., upon FNP mixing with water as the antisolvent. The organic solvent containing API:IP from the third test is diluted ten-fold in water, and precipitate formation is examined. If a precipitate forms, then the construct is suitable for use in FNP. In Situ Ion Pairing\nSeveral water-soluble counter ion salts IPs were chosen for this investigation to determine the physical properties of the counter ions required for successful complex formation (FIG. 3). A range of carboxylate and sulfonate salt IPs whose acid forms have pKa ranging 5 to −1.9 were tested, as well as salts with a wide range of solubilities and LogP values as high as 7.6 or as low as −4.92. API was dissolved at 5 mg mL^−1 in water in 1× volume, and rapidly mixed with 1× volume of dissolved IP to give a final mixture containing a 1:1 API:IP charge ratio. Mixtures were visually observed to assess if precipitates rapidly formed. […]"}, "[3]": {"assay": "Ion-pairing screening using polymyxin B API", "type": "physicochemical", "parameters": "key to Reprecipitation: + details re-precipitation observed; − details no re-precipitation observed; key to Organic Dissolution: ++ details complete dissolution; + details non-complete dissolution; key to Precipitation: +++: + details qualitative observations of the amount of solid formed; ++: + details qualitative observations of the amount of solid formed; + details qualitative observations of the amount of solid formed; − details no solids formed", "conditions": "for Precipitation: polymyxin B API mixed with IP in water", "description": "as §1, §2\nSeveral water-soluble counter ion salts IPs were chosen for this investigation to determine the physical properties of the counter ions required for successful complex formation (FIG. 3). A range of carboxylate and sulfonate salt IPs whose acid forms have pKa ranging 5 to −1.9 were tested, as well as salts with a wide range of solubilities and LogP values as high as 7.6 or as low as −4.92. API was dissolved at 5 mg mL^−1 in water in 1× volume, and rapidly mixed with 1× volume of dissolved IP to give a final mixture containing a 1:1 API:IP charge ratio. Mixtures were visually observed to assess if precipitates rapidly formed."}, "[4]": {"assay": "Encapsulation efficiency (ultrafiltration, BCA assay)", "type": "physicochemical", "conditions": "LL37:SDS 1:1 PCL5k-b-PEG5k NPs"}, "[5]": {"assay": "Particle size and polydispersity by dynamic light scattering", "type": "physicochemical", "conditions": "PCL5k-b-PEG5k NPs"}, "[6]": {"system": "cells", "assay": "Lysozyme activity after release (ability to lyse cells)", "type": "biochemical"}, "[7]": {"assay": "API release from NCs by dialysis (BCA assay)", "type": "physicochemical", "description": "Drug concentrations were determined with the bicinchoninic acid (BCA) assay (Spectramax i3x, Molecular Devices) with absorbance measurements at 562 nm, using a standard curve of the same drug (unencapsulated) as the reference. API fractional release was determined by dialyzing NC sample in 100-fold 1×PBS. […] The drug concentration in each aliquot was determined by the BCA assay at 562 nm. The released fraction is the API concentration at each time point divided by the initial API concentration before dialysis (Eq. 2).\nAPI release rates from NCs are a critical determinant of dosing frequency, in vivo active concentrations, and overall therapeutic effectiveness. The release rates of polymyxin B were assessed by enclosing NCs in an 8 kDa MWCO dialysis bag and diluting into a thousand-fold excess volume of PBS to simulate an “open sink” condition at room temperature. Encapsulated polymyxin within dialysis bags was measured over time, using the BCA assay, to determine the amount of API that had been released (FIGS. 7A, 7B, and 7C)."}, "[8]": {"conditions": "OVA with at least one charge equivalent of quaternary ammonium surfactant"}},
  "data": [
    {"molecule": "CCCCCCCC/C=C\\CCCCCCCC(=O)O", "note": "[Oleic acid, oleic acid]", "values": [
      {"measurement": "solubility in water", "setting": "[1]", "result": "~3e-07", "unit": "g/g"}
    ]},
    {"molecule": "CCCCCCCC/C=C\\CCCCCCCC(=O)[O-].[Na+]", "note": "[Sodium Oleate, sodium oleate]", "values": [
      {"measurement": "Precipitation", "setting": "[2]", "result": "−"},
      {"measurement": "precipitation upon mixing and NC formation", "setting": "[3]; FIG. 4, polymyxin", "result": "rapid precipitation and successful NC formation"},
      {"measurement": "Precipitation", "setting": "[3]", "result": "+++"},
      {"measurement": "Reprecipitation", "setting": "[3]; polymyxin B:IP organic solution diluted ten-fold in water", "result": "+"},
      {"measurement": "Organic Dissolution", "setting": "[3]; polymyxin B:IP pellet in organic solvent (THF)", "result": "++"}
    ]},
    {"molecule": "LL37: cationic antibiotic peptide, 1719 Da, sequence FKRIVQRIKDFLR (nanoparticle formulation; LL37) [reference compound]", "values": [
      {"measurement": "Encapsulation efficiency", "setting": "[4]", "result": "over 95%"},
      {"measurement": "NP diameter", "setting": "[5]; LL37 pre-ion paired with SDS 1:1 charge ratio", "result": "~120", "unit": "nm"}
    ]},
    {"molecule": "Lysozyme [LYZ]", "values": [
      {"measurement": "released LYZ with activity equal to LYZ that was never encapsulated", "setting": "[6]; following release from NPs, over all formulations", "result": "up to 100%"},
      {"measurement": "released LYZ that was bioactive", "setting": "[6]; paired 1:1 with DXS", "result": 100, "unit": "%"},
      {"measurement": "released LYZ that was bioactive", "setting": "[6]; paired 1:1 with OA", "result": 100, "unit": "%"},
      {"measurement": "released LYZ that was bioactive", "setting": "[6]; paired 1:1 with SDS", "result": "approximately 60%"},
      {"measurement": "released LYZ that was bioactive", "setting": "[6]; paired 1:2 with DXS", "result": "approximately 60%"},
      {"measurement": "released LYZ that was bioactive", "setting": "[6]; paired 1:2 with OA", "result": 100, "unit": "%"},
      {"measurement": "released LYZ that was bioactive", "setting": "[6]; paired 1:2 with SDS", "result": "< 10", "unit": "%"},
      {"measurement": "released LYZ that was bioactive", "setting": "[6]; paired 1:4 with DXS", "result": "approximately 60%"},
      {"measurement": "released LYZ that was bioactive", "setting": "[6]; paired 1:4 with OA", "result": "approximately 60%"},
      {"measurement": "released LYZ that was bioactive", "setting": "[6]; paired 1:4 with SDS", "result": "< 10", "unit": "%"},
      {"measurement": "LYZ released by 14 days", "setting": "[7]; NPs with OA, 1:2 charge ratio", "result": 20, "unit": "%"},
      {"measurement": "LYZ released by 14 days", "setting": "[7]; NPs with OA, 1:4 charge ratio", "result": 10, "unit": "%"},
      {"measurement": "LYZ released by 14 days", "setting": "[7]; NPs with SDS, 1:1 charge ratio", "result": 50, "unit": "%"},
      {"measurement": "NP diameter", "setting": "[5]; LYZ pre-formed with SDS or DXS", "result": "~150", "unit": "nm"},
      {"measurement": "PDI", "setting": "[5]; LYZ pre-formed with SDS or DXS", "result": "< 0.2"}
    ]},
    {"molecule": "Mastoparan 7 [MP7, reference compound]", "values": [
      {"measurement": "characteristic release time (time for 50% release)", "setting": "[7]; MP7, NPs are MP7:SDS 1:1 PCL5k-b-PEG5k", "result": 2.9, "unit": "h"}
    ]},
    {"molecule": "sodium deoxycholate", "values": [
      {"measurement": "Precipitation", "setting": "[2]", "result": "++"},
      {"measurement": "Precipitation", "setting": "[3]", "result": "+++"}
    ]},
    {"molecule": "B1", "values": [
      {"measurement": "NP diameter", "setting": "[5]; [8]", "result": "~150", "unit": "nm"},
      {"measurement": "PDI", "setting": "[5]; [8]", "result": "< 0.2"}
    ]}
  ]
}
